Measurements published in US12116564B2, “Cells expressing recombinant growth factor receptors” (INSTIL BIO (UK) LIMITED, priority 2015, dated 2024).

Columns and labels:
[1] = tested on: WT TpoR transduced primary human T-cells; format: cell-based; conditions: for response in relative increase of cell number as concentration increases: varying concentrations, three and five days
Protocol: Transduced primary human T-cells were incubated with the indicated concentrations of each drug and cells counted after three and five days
(§1) Following expansion cells were washed excessively to remove any exogenous IL2 and plated into 96-well U-bottom plates. Cells were supplemented with IL2 (Proleukin), recombinant human Tpo (Miltenyi Biotec) or Eltrombopag (Stratech Scientific, Suffolk, UK). At various time points thereafter cells were either stained with a 1:400 dilution of eFlor-450 fixable viability dye (eBioscience, UK) and counted directly from the wells using a MACSQuant Cytometer, or were stained with viability dye plus phycoerythrin conjugated anti-CD110 antibodies (Miltenyi Biotec, UK) and analysed using a MACSQuant cytomter. Cell viability and/or transduction level was then analysed using MACSQuantify software (Miltenyi Biotec, UK).
After three and five days the cells were stained with EFlor-450 Live/dead fixable viability dye and the cells in each well counted by flow cytometry.

[2] = tested on: primary human T-cells harbouring the WT TpoR; assay: Enrichment of TpoR+ cells (anti-CD110 flow cytometry), WT TpoR T-cells diluted to 20% transduction; format: cell-based; conditions: for TpoR positive cells after enrichment: start 20% transduced, up to nine days
Protocol: as §1, with “FIG. 6—Enrichment kinetics of modular T-cell growth signal receptor engineered T-cells to varying concentrations of IL-2, Eltrombopag (Elt) or thrombopoietin (Tpo). Transduced primary human T-cells were diluted with non-transduced cells to a 20% transduction level. Cells were incubated with the indicated concentrations of each drug and the enrichment of each population established at the indicated time points by staining cells with anti-CD110-PE antibodies. Following expansion” for “Following expansion”, “Biotec, UK). Additional cells were diluted with non-transduced cells to achieve a population with 20% transduction efficiency. […] After three, six and nine days the cells were stained with anti-CD110 (TpoR) antibodies and analysed by flow cytometry.” for “Biotec, UK).”

[3] = tested on: primary human T-cells harbouring the mt TpoR; assay: Enrichment of TpoR+ cells (anti-CD110 flow cytometry), mt (truncated) TpoR T-cells diluted to 20% transduction; format: cell-based; conditions: for TpoR positive cells after enrichment: start 20% transduced, up to nine days
Protocol: as §1, with “FIG. 6—Enrichment kinetics of modular T-cell growth signal receptor engineered T-cells to varying concentrations of IL-2, Eltrombopag (Elt) or thrombopoietin (Tpo). Transduced primary human T-cells were diluted with non-transduced cells to a 20% transduction level. Cells were incubated with the indicated concentrations of each drug and the enrichment of each population established at the indicated time points by staining cells with anti-CD110-PE antibodies. Following expansion” for “Following expansion”, “Biotec, UK). Additional cells were diluted with non-transduced cells to achieve a population with 20% transduction efficiency. […] After three, six and nine days the cells were stained with anti-CD110 (TpoR) antibodies and analysed by flow cytometry.” for “Biotec, UK).”

[4] = tested on: melanoma TIL transduced with WT TpoR; assay: Enrichment of TpoR+ cells in WT TpoR transduced melanoma tumour infiltrating lymphocytes; format: cell-based, human; conditions: for TpoR+ cells after enrichment: from 65% TpoR+
Protocol: FIG. 12—Analysis of WT TpoR activity in Melanoma Tumour Infiltrating Lymphocytes. Tumour infiltrating lymphocytes (TIL) established from a cutaneous melanoma lesion were lentivirally transduced with the WT TpoR rGFR. The TIL were incubated in the presence of 200 IU/ml IL2 or the indicated concentrations of Tpo or Eltrombopag. At days 2 and 5 cells were removed, stained with PE conjugated anti-CD110 antibodies and analysed using a MACSQuant analyser.
Next we aimed to determine whether the WT TpoR was functionally active in Tumour Infiltrating Lymphocytes (TIL). It was possible that the high doses of IL2 used to generate TIL cultures could make them more dependent on IL2 for subsequent growth. To this end we added lentiviral supernatants to melanoma TIL cultures. Cells were transduced to 65% (FIG. 12). The TILs were cultured in the presence of 200 IU/ml IL-2, or Eltrombopag or Tpo. Cells were analysed for TpoR expression at days 2 and 5. […] In contrast there was no enrichment of TpoR+ cells in the presence of IL2 supporting the notion that this is driven by signals through the TpoR.

[5] = 73 healthy volunteers, higher doses; cited from earlier work
[6] = tested on: Ba/F3 cells transduced with WT TpoR; assay: Enrichment of transduced Ba/F3 cells, WT TpoR; format: cell-based, murine; conditions: 0.5 μM Eltrombopag or 1.0 μM Tpo; days 3, 5 and 7
Protocol: (§2) FIG. 10—Analysis of rGFR variants in Ba/F3 cells. The IL3 dependent cell line Ba/F3 was transduced with the indicated rGFR variants and incubated in the presence of 1 μM Tpo, 0.5 μM Eltrombopag or 0.5 ng/ml IL3. Cells were taken at days 3, 5 and 7 stained with PE conjugated anti-CD110 antibodies and analysed using a MACSQuant analyser.
(§3) To determine whether the new variants generated were functionally active we transduced the IL3 dependent cell line Ba/F3 and incubated the cells with either IL-3, 0.5 μM Eltrombopag or 1.0 μM Tpo and measured the proportion of cells expressing the indicated TpoR at days 3, 5 and 7.

[7] = tested on: Ba/F3 cells transduced with F104S TpoR variant; assay: Enrichment of transduced Ba/F3 cells, F104S TpoR; format: cell-based, murine; conditions: 0.5 μM Eltrombopag or 1.0 μM Tpo; days 3, 5 and 7
Protocol: as §2, §3

[8] = tested on: Ba/F3 cells transduced with TpoR-HGHR variant; assay: Enrichment of transduced Ba/F3 cells, TpoR-HGHR; format: cell-based, murine; conditions: 0.5 μM Eltrombopag or 1.0 μM Tpo; days 3, 5 and 7
Protocol: as §2, §3

[9] = tested on: Ba/F3 cells transduced with TpoR-PrIR variant; assay: Enrichment of transduced Ba/F3 cells, TpoR-PrIR; format: cell-based, murine; conditions: 0.5 μM Eltrombopag or 1.0 μM Tpo; days 3, 5 and 7; compared with the other variants
Protocol: as §2, §3

TpoR F104S = molecular target: T1, TpoR F104S (Homo sapiens, UniProt P40238, F104S); conditions: Fox et al 2010; cited from earlier work
T1 sequence (P40238 26-635 F104S): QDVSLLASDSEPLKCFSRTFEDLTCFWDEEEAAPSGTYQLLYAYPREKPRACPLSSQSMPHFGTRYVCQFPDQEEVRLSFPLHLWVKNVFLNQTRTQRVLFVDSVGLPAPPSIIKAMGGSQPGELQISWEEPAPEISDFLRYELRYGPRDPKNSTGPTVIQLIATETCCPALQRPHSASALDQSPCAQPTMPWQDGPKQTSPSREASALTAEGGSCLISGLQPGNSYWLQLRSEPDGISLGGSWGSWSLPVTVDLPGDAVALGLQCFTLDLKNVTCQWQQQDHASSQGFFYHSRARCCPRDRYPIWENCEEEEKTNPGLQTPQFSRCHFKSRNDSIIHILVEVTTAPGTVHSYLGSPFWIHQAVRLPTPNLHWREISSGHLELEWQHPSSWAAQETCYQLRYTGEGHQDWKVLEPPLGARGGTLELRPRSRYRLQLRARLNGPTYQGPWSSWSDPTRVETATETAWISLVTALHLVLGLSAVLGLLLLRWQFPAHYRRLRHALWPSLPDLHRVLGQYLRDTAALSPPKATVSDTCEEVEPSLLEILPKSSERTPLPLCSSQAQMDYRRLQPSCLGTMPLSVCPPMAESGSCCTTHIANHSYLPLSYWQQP

Q: With `CC1=NN(c2ccc(C)c(C)c2)C(=O)/C1=N\Nc1cccc(-c2cccc(C(=O)O)c2)c1O` [Eltrombopag] as the molecule, how does the “concentration at which responses (relative increase of cell number) are maximal” value ([1]; 94% transduced, 5×10^4 cells/well, counted after three and five days) read?
A: The value was “around 0.1 μM”.

Q: And the “toxicity to the T-cells” value ([1]; concentrations above around 0.1 μM)?
A: Its value is “becoming toxic”.

Q: What about the “TpoR positive cells after enrichment” value ([2]; 0.5 μM Eltrombopag) of the same molecule?
A: The value was 83.5%.

Q: What about the “TpoR positive cells after enrichment” value ([3]; 0.5 μM Eltrombopag) of the same molecule?
A: Its value is 66.6%.

Q: And the “TpoR+ cells after enrichment” value ([4]; high (1.0 μM) Eltrombopag)?
A: Its value is 90%.

Q: And the “TpoR+ cells after enrichment” value ([4]; low (0.1 μM) Eltrombopag)?
A: The value was 89%.

Q: What about the tolerability [5] of the same molecule?
A: Its tolerability is “without tolerability problems”.

Q: What does the source list for “IL-2: IL2 (Proleukin), cytokine normally required for optimal T-cell growth”?
A: response in relative increase of cell number as concentration increases [1]: dose dependent responses; enrichment of TpoR positive cells over time ([2]; 100 IU/ml IL-2 alone): did not become enriched over time; enrichment of TpoR positive cells over time ([3]; 100 IU/ml IL-2 alone): did not become enriched over time; enrichment of TpoR+ cells ([4]; 200 IU/ml IL-2): no enrichment

B1: Tpo: recombinant human Tpo (Miltenyi Biotec), native ligand of the thrombopoietin receptor (protein)
chain: SPAPPACDLRVLSKLLRDSHVLHSRLSQCPEVHPLPTPVLLPAVDFSLGEWKTQMEETKAQDILGAVTLLLEGVMAARGQLGPTCLSSLLGQLSGQVRLLLGALQSLLGTQLPPQGRTTAHKDPNAIFLSFQHLLRGKVRFLMLVGGSTLCVRRAPPTTAVPSRTSLVLTLNEL
Q: What does the source list for B1?
A: maximal response compared with Eltrombopag or IL-2 ([1]; possibly optimal concentrations not used): did not see maximal responses to Tpo comparable to those seen with Eltrombopag or IL-2; response in relative increase of cell number as concentration increases [1]: dose dependent responses; TpoR positive cells after enrichment ([2]; 10.0 μM Tpo): 87.5%; TpoR positive cells after enrichment ([3]; 10.0 μM Tpo): 77.9%; enrichment of transduced cells [6]: able to support the enrichment of transduced cells; enrichment of transduced cells [7]: much reduced activity; functional activity (enrichment of transduced cells) [8]: functional activity; functional activity (enrichment of transduced cells) [9]: less robust responses; enrichment of TpoR+ T-cells ([4]; high (1 μM) Tpo): able to induce enrichment; effect of the F104S extracellular point mutation on responsiveness to the ligand (TpoR F104S): prevent responsiveness
